Assay results taken from article PMC6178619, “Arylvinylpiperazine Amides, a New Class of Potent Inhibitors Targeting QcrB of Mycobacterium tuberculosis” (mBio, 2018).
Values after ≈ are worked out from the molar mass of the structure shown. Like-named read-outs stand apart in the source and are kept apart here.

Tests used:
M. tuberculosis H37Rv [1] = assay: MIC by resazurin reduction microplate assay (REMA); type: cell-based, Mycobacterium tuberculosis
[2] = system: M. tuberculosis H37Rv-infected THP-1 macrophages; assay: microbe, parasite or virus in culture; type: cell-based; details: Mycobacterium tuberculosis, THP-1, 48 h, read-out: Antimycobacterial activity against M. tuberculosis H37Rv, ex vivo in THP-1 macrophages (IC50)
HepG2 cells = type: cell-based, human
Protocol: Human HepG2 cells (4,000 cells/well) were incubated for 3 days with 2-fold serially diluted compounds at 37°C under an atmosphere of 5% CO2. Cell viability was determined by the addition of resazurin (0.0025% wt/vol) for 4 h at 37°C, and the fluorescence intensity was measured as in REMA.

Bacillus subtilis = assay: MIC by REMA; type: cell-based
Candida albicans = assay: MIC by REMA; type: cell-based
[3] = system: Corynebacterium diphtheriae; assay: MIC by REMA; type: cell-based
[4] = system: Corynebacterium glutamicum; assay: MIC by REMA; type: cell-based
Enterococcus faecalis = assay: MIC by REMA; type: cell-based
Escherichia coli = assay: MIC by REMA; type: cell-based
Listeria monocytogenes = assay: MIC by REMA; type: cell-based
Micrococcus luteus = assay: MIC by REMA; type: cell-based
Mycobacterium avium = assay: MIC by REMA; type: cell-based
Mycobacterium bovis BCG = assay: microbe, parasite or virus in culture; type: cell-based; details: Mycobacterium tuberculosis variant bovis BCG
[5] = system: Mycobacterium canettii STB-L; assay: MIC by REMA; type: cell-based; details: Mycobacterium canetti
Mycobacterium marinum = assay: MIC by REMA; type: cell-based
[6] = system: Mycobacterium massiliense; assay: MIC by REMA; type: cell-based; details: Mycobacteroides abscessus
Mycobacterium smegmatis = assay: MIC by REMA; type: cell-based; details: Mycolicibacterium smegmatis
Mycobacterium ulcerans = assay: MIC by REMA; type: cell-based
Mycobacterium vaccae = assay: MIC by REMA; type: cell-based; details: Mycolicibacterium vaccae
Pseudomonas aeruginosa = assay: MIC by REMA; type: cell-based
Pseudomonas putida = assay: MIC by REMA; type: cell-based
[7] = system: Salmonella enterica serovar Typhimurium; assay: MIC by REMA; type: cell-based
Staphylococcus aureus = assay: MIC by REMA; type: cell-based
in vitro = assay: in vitro
Protocol: Metabolic stability of the compounds was measured based on intrinsic clearance (Clint) in mouse and human liver microsomes as previously described ([42]). The final compound concentration in the mixture of microsomes and NADPH regeneration system was 2 µg/ml, and a mixture without NADPH regeneration was also prepared for each compound as a control of the stability of the compound with time.

wild-type H37Rv = type: cell-based, Mycobacterium tuberculosis; details: 2.5× MIC, 24 h exposure
M. tuberculosis H37Rv [8] = type: cell-based; details: AX-35 14 µM, Q203 0.3 µM (100× MIC50), glucose
[9] = system: M. tuberculosis H37Rv ΔcydAB; type: cell-based; details: ΔcydAB strain; AX-35 14 µM, Q203 0.3 µM (100× MIC50)
M. tuberculosis H37Rv [10] = type: cell-based; details: up to a concentration 32-fold higher than the MIC, 7 days
[11] = system: H37Rv ΔcydAB::cydAB complemented strain; type: cell-based
M. tuberculosis H37Rv [12] = assay: Acute mouse model of TB; type: in vivo, mouse (BALB/c); details: for Reduction of bacterial load in mouse lungs vs TPGS vehicle control: once daily for 10 days
M. bovis BCG = details: cited from earlier work
M. tuberculosis H37Rv [13] = details: cited from earlier work
[14] = H37RV; Mycobacterium tuberculosis (Table 2 panel); read-out: MIC
[15] = Mycobacterium tuberculosis, H37RV, 144 h; read-out: Antimycobacterial activity against M. tuberculosis H37Rv, in vitro (MIC)
[16] = Mycobacterium canettii STB-L, read-out: MIC

Structure (SMILES)	MIC (M. tuberculosis H37Rv [1]; [15]) [µg/mL]	IC50 [2] [µg/mL]	Cytotoxicity in HepG2 cells (TD50) (HepG2 cells; 3 days incubation) [µg/mL]	MIC (Bacillus subtilis) [µg/mL]	MIC (Candida albicans) [µg/mL]	MIC [3] [µg/mL]	MIC [4] [µg/mL]	MIC (Enterococcus faecalis) [µg/mL]	MIC (Escherichia coli) [µg/mL]	MIC (Listeria monocytogenes) [µg/mL]	MIC (Micrococcus luteus) [µg/mL]	MIC (Mycobacterium avium) [µg/mL]	MIC (Mycobacterium bovis BCG) [µg/mL]	MIC (Mycobacterium marinum) [µg/mL]	MIC [6] [µg/mL]	MIC (Mycobacterium smegmatis) [µg/mL]	MIC (Mycobacterium ulcerans) [µg/mL]	MIC (Mycobacterium vaccae) [µg/mL]	MIC (Pseudomonas aeruginosa) [µg/mL]	MIC (Pseudomonas putida) [µg/mL]	other results
O=C(/C=C/c1cccs1)N1CCN(Cc2ccc3c(c2)OCO3)CC1 [AX-35, (E)-1-(4-(Benzo[d][1,3]dioxol-5-ylmethyl)piperazin-1-yl)-3-(thiophen-2-yl)prop-2-en-1-one]	0.05 (≈ 0.14 µM)	0.1 (≈ 0.281 µM)	50	> 100	> 100	> 100	> 100	> 100	74 (≈ 208 µM)	> 100	> 100	8.2 (≈ 23 µM)	0.8 (≈ 2.24 µM)	11.5 (≈ 32.3 µM)	7.7 (≈ 21.6 µM)	100 (≈ 281 µM)	1.6 (≈ 4.49 µM)	12.1 (≈ 33.9 µM)	> 100	> 100	Antimycobacterial activity against M. tuberculosis H37Rv, in vitro (MIC) (M. tuberculosis H37Rv [1]): 0.05 µg/mL; MIC (M. tuberculosis H37Rv [1]; [14]): 0.05 µg/mL (≈ 0.14 µM); MIC [5, 16]: 0.003 µg/mL (≈ 0.00842 µM); MIC [7]: > 100 µg/mL; MIC (Staphylococcus aureus): > 100 µg/mL; Clearance Category (in vitro; human, microsomes): medium; microsomal CLint at 2 µg/ml (in vitro; human, microsomes): 21.7 µL/min/mg; Clearance Category (in vitro; mouse, microsomes): high; microsomal CLint at 2 µg/ml (in vitro; mouse, microsomes): 120 µL/min/mg; Intracellular ATP level, lower than untreated control (wild-type H37Rv): ~90%; Oxygen consumption rate (OCR) change from basal on compound addition (M. tuberculosis H37Rv [8]): increase; Increase in OCR on compound addition [9]: no longer observed; Mode of action (MBC, 99.9% killed) (M. tuberculosis H37Rv [10]): bacteriostatic; Outcome of AX-35 treatment in complemented strain [11]: survival of the bacteria; Reduction of bacterial load in mouse lungs vs TPGS vehicle control (M. tuberculosis H37Rv [12]; oral 200 mg/kg): 0.4 log10; MIC (M. bovis BCG): 0.3 µM (≈ 0.107 µg/mL); MIC (M. tuberculosis H37Rv [13]): 0.3 µM (≈ 0.107 µg/mL)
O=C(/C=C/c1ccsc1)N1CCN(Cc2ccc3c(c2)OCO3)CC1 [AX-36, (E)-1-(4-(Benzo[d][1,3]dioxol-5-ylmethyl)piperazin-1-yl)-3-(thiophen-3-yl)prop-2-en-1-one]	0.1 (≈ 0.281 µM)	0.3 (≈ 0.842 µM)	37.5	> 100	> 100	> 100	> 100	> 100	100 (≈ 281 µM)	> 100	> 100	12.8 (≈ 35.9 µM)	0.8 (≈ 2.24 µM)	19.6 (≈ 55 µM)	10.4 (≈ 29.2 µM)	63 (≈ 177 µM)	1.6 (≈ 4.49 µM)	26.9 (≈ 75.5 µM)	> 100	> 100	MIC (M. tuberculosis H37Rv [1]; [14]): 0.1 µg/mL (≈ 0.281 µM); MIC [5, 16]: 0.01 µg/mL (≈ 0.0281 µM); MIC [7]: > 100 µg/mL; MIC (Staphylococcus aureus): > 100 µg/mL; Clearance Category (in vitro; human, microsomes): medium; microsomal CLint at 2 µg/ml (in vitro; human, microsomes): 16.8 µL/min/mg; Clearance Category (in vitro; mouse, microsomes): high; microsomal CLint at 2 µg/ml (in vitro; mouse, microsomes): 117 µL/min/mg; Intracellular ATP level, lower than untreated control (wild-type H37Rv): ~90%
O=C(/C=C/c1cscn1)N1CCN(Cc2ccc3c(c2)OCO3)CC1 [AX-37, (E)-1-(4-(Benzo[d][1,3]dioxol-5-ylmethyl)piperazin-1-yl)-3-(1λ^3,3λ^2-thiazol-4-yl)prop-2-en-1-one]	0.1 (≈ 0.28 µM)	0.2 (≈ 0.56 µM)	25	–	–	–	–	–	–	–	–	–	–	–	–	–	–	–	–	–	Reduction of bacterial load in mouse lungs vs TPGS vehicle control (M. tuberculosis H37Rv [12]; oral 100 mg/kg): 0.6 log10
O=C(/C=C/c1ccccc1)N1CCN(Cc2ccc3c(c2)OCO3)CC1 [AX-38, (E)-1-(4-(Benzo[d][1,3]dioxol-5-ylmethyl)piperazin-1-yl)-3-phenylprop-2-en-1-one]	0.2 (≈ 0.571 µM)	0.3 (≈ 0.856 µM)	37.5	–	–	–	–	–	–	–	–	–	–	–	–	–	–	–	–	–	Clearance Category (in vitro; human, microsomes): medium; microsomal CLint at 2 µg/ml (in vitro; human, microsomes): 13.3 µL/min/mg; Clearance Category (in vitro; mouse, microsomes): high; microsomal CLint at 2 µg/ml (in vitro; mouse, microsomes): 63.8 µL/min/mg
O=C(/C=C/c1nccs1)N1CCN(Cc2ccc3c(c2)OCO3)CC1 [AX-39, (E)-1-(4-(Benzo[d][1,3]dioxol-5-ylmethyl)piperazin-1-yl)-3-(thiazol-2-yl)prop-2-en-1-one]	0.3 (≈ 0.839 µM)	1.8 (≈ 5.04 µM)	75	–	–	–	–	–	–	–	–	–	–	–	–	–	–	–	–	–	Reduction of bacterial load in mouse lungs vs TPGS vehicle control (M. tuberculosis H37Rv [12]; oral 100 mg/kg): 0.9 log10
NC(=O)N1c2ccccc2C=Cc2ccccc21 [Carbamazepine, reference compound]	–	–	–	–	–	–	–	–	–	–	–	–	–	–	–	–	–	–	–	–	Clearance Category (in vitro; human microsomes, compound 2 µg/ml): low; Clearance Category (in vitro; mouse microsomes, compound 2 µg/ml): low
CCc1nc2ccc(Cl)cn2c1C(=O)NCc1ccc(N2CCC(c3ccc(OC(F)(F)F)cc3)CC2)cc1 [Compound Q203, reference compound]	–	–	–	–	–	–	–	–	–	–	–	–	–	–	–	–	–	–	–	–	Oxygen consumption rate (OCR) change from basal on compound addition (M. tuberculosis H37Rv [8]): increase; Increase in OCR on compound addition [9]: no longer observed
NNC(=O)c1ccncc1 [INH, isoniazid, reference compound]	–	–	–	–	–	–	–	–	–	–	–	–	–	–	–	–	–	–	–	–	log10 CFU per lung (M. tuberculosis H37Rv [12]; 25 mg/kg oral, Day 10): below l.o.d.
CO[C@H]1/C=C/O[C@@]2(C)Oc3c(C)c(O)c4c(O)c(c(/C=N/N5CCN(C)CC5)c(O)c4c3C2=O)NC(=O)/C(C)=C\C=C\[C@H](C)[C@H](O)[C@@H](C)[C@@H](O)[C@@H](C)[C@H](OC(C)=O)[C@@H]1C [Rifampin, rifampin, reference compound]	–	0.1 (≈ 0.122 µM)	–	0.3 (≈ 0.365 µM)	1.5 (≈ 1.82 µM)	0.0004 (≈ 0.000486 µM)	0.004 (≈ 0.00486 µM)	0.6 (≈ 0.729 µM)	6.7 (≈ 8.14 µM)	0.8 (≈ 0.972 µM)	0.7 (≈ 0.851 µM)	25 (≈ 30.4 µM)	0.0008 (≈ 0.000972 µM)	0.5 (≈ 0.608 µM)	26.9 (≈ 32.7 µM)	1.7 (≈ 2.07 µM)	0.01 (≈ 0.0122 µM)	2.5 (≈ 3.04 µM)	1 (≈ 1.22 µM)	0.2 (≈ 0.243 µM)	MIC (M. tuberculosis H37Rv [1]; Mycobacterium tuberculosis, H37RV): 0.001 µg/mL (≈ 0.00122 µM); MIC (M. tuberculosis H37Rv [1]; Mycobacterium tuberculosis, H37RV, 144 h, read-out: Antimycobacterial activity against M. tuberculosis H37Rv, in vitro (MIC)): 0.0008 µg/mL (≈ 0.000972 µM); Cytotoxicity in HepG2 cells (TD50) (HepG2 cells; human): 75 µg/mL; MIC [5]: 0.002 µg/mL (≈ 0.00243 µM); MIC [7]: 0.7 µg/mL (≈ 0.851 µM); MIC (Staphylococcus aureus): 3.8 µg/mL (≈ 4.62 µM)
